# Source: patent publication US20080306285A1, “Heat-Labile Prodrugs” (priority 2007, published 2008)
# Read-outs that look alike come from different tables or passages of the source.
# Legend:
# [1] = FIG. 16, n=2
# [2] = Pharmacokinetics of THC aerosol by inhalation in Beagle dogs; assay type: in vivo; details: for Cmax / Tmax / half-life: plasma (venous); for Cmax / Tmax / half-life / AUC(0-inf): 0.93 mg, inhalation 0.93 mg THC + 0.11 THCA, venous plasma THC; for Fraction of THC Emitted Dose in Exhalation: based on 924 μg THC emitted dose; for BA: inhalation vs IV; for THC in Exhaled Breath: 5 sec breath hold; for time of maximum arterial plasma concentration: arterial blood, FIG. 14; for time of venous plasma concentration peak: venous blood, FIG. 15
# Protocol: A study was conducted in order to compare the pharmacokinetics (PK) of delivering THC by inhalation from a thermally labile prodrug to those of an intravenous (IV) bolus. A device consisting of a control electronics PC board, air-flow regulator, inhalation valve, air-flow meter, and indo-tracheal tube was used to generate and administer THC aerosol to Beagle dogs. Two safety mechanisms built into the device prevent harm to the test subject: one that closes the inhalation valve when the selected air volume is delivered to the test subject, and one that vents the system to ambient air if the circuit board loses control over the system (due to power failure, etc.).
# The in vivo portion of the study was designed with a target THC emitted dose of 0.98 mg. Aerosol quality samples were captured prior to and immediately following animal dosing in a manner consistent with previous pre-PK development work and the animal dosing parameters. The emitted dose samples were collected on 2 μm Teflon filters, while the particle size samples were collected using an ACI fitted with glass fiber filters. After aerosol collection, the filters were stored in amber vials in a freezer prior to analysis. All results were within the acceptable range determined from a previous development study.
# For the inhalation portion, four Beagle dogs (2 male/2 female) were exposed to THC aerosol by forced maneuver inhalation exposure. A breath hold of 5 sec was followed by exhalation into a Teflon filter. The filters were placed in vials for analysis using HPLC. Body weight, inhalation volume, exhalation volume, and quantity of THC in exhalation for each test subject are set forth in Table Three, below.
# (§1) All blood samples measured 0.5 mL and were collected in plastic vials containing K2EDTA as the anticoagulant. The vials were placed on wet ice until centrifugation to recover the plasma. The plasma samples were analyzed for THC, THCA, and the major metabolite (11-nor-9-carboxy-Δ^9-tetrahydrocannabinol) of THC using a mass spectrometry method.
# Immediately after simultaneous administration of the drug and the prodrug, blood samples were drawn from both the arterial and venous circulation of the test subjects. Arterial sampling was more frequent at the early time points and was stopped at 10 minutes, while venous sampling continued to 24 hours.
# (§2) Non-compartmental modeling of the venous THC plasma concentrations was performed using WinNonlin™ (WinNonlin Professional Version 4.1, Pharsight Corp., Mountain View, Calif.). Characterization of the gamma (third) terminal linear phase for the inhalation and IV portions of the study allowed us to compare the inhalation pharmacokinetics to those of IV.
# [3] = Pharmacokinetics of THC IV bolus in Beagle dogs; assay type: in vivo; details: dog, venous plasma, 0.9 mg, IV injection 0.9 mg THC
# Protocol: Two weeks after dosing by inhalation, the same dogs were given a 0.9 mL (adjusted to match the aerosol output measured in the pre- and post-dose aerosol quality testing) bolus IV injection of THC (1 mg/mL THC and sodium ascorbate) in 0.9% NaCl aqueous solution.
# as §1, §2
# [4] = oral dronabinol formulations of THC, cited from earlier work
# [5] = Aerosolization of estradiol-t-BOC-Gly-Gly; assay type: physicochemical
# Protocol: The prodrug, estradiol-t-BOC-Gly-Gly (shown in FIG. 12 and prepared as described above), was spray coated onto stainless steel test strips (1.347 mg; […] nominal film thickness). The test articles were placed in the screening device and heated by discharging a capacitor through the foils to thermally convert the prodrug back to estradiol and form a condensation aerosol. Tests were conducted on duplicate foils at each of three temperatures (325° C., 350° C., and 380° C.) determined by the discharge voltage of the capacitor. The aerosol was collected with a Teflon filter, and the trapped aerosol was extracted from the collection apparatus using organic solvent and analyzed using HPLC.
# FIG. 17 is a bar graph 1700 showing percent estradiol in aerosol 1702 as a function of vaporization temperature 1704 (n=2). FIG. 18 is a bar graph 1800 showing percent prodrug in aerosol 1802 as a function of vaporization temperature 1804 (n=2).
# [6] = Physical stability drop tests of THCA coatings; assay type: physicochemical; details: up to 1.0 mg/cm^2 on stainless steel, after 6 months storage at various conditions
# Excerpt: An advantage of THCA is that it is a solid that forms a physically stable film, as opposed to Δ^9-THC, which is a viscous oil whose coated films are subject to flow.
# [7] = Aerosol particle size by Anderson Cascade Impactor; assay type: physicochemical; details: THC aerosol from THCA film, 1 mg/cm^2, aerosol mass 1 mg, 28.3 L/min
# Protocol: Particle size distribution is characterized by the mass median aerodynamic diameter (MMAD) and the geometric standard deviation (GSD). For thermal condensation aerosols, such as those disclosed herein and in our previous patent applications, particle size is governed by the competing mechanisms of condensation and Brownian aggregation.
# All particle size experiments were conducted by vaporizing drug films into an 8-stage Anderson Cascade Impactor (ACI) fitted with a glass fiber filter. The ACI consists of several stages, with each successive stage having a smaller size cutoff. By extracting and determining the mass of drug deposited at each stage, it is possible to estimate the particle size distribution of the aerosol.
# An air flow of 28.3 L/min was used to generate the aerosol and distribute it through the ACI. Each stage and filter was extracted with organic solvent and analyzed using HPLC. The MMAD and GSD were calculated from the quantity of aerosol on each stage. The MMAD for the THC aerosol (generated from THCA film, drug loading=1 mg/cm^2; aerosol mass=1 mg) was 2.2 μm and the GSD [84/16] was 2.2. In addition, the fine particle fraction (FPF, MMAD <5 μm) was over 95%. These values are well within the range normally accepted for effective pulmonary deposition.
# [8] = Beagle, dog, inhaled or intranasal, subject 101
# [9] = Beagle, dog, inhaled or intranasal, subject 102
# [10] = Beagle, dog, inhaled or intranasal, subject 103
# [11] = Beagle, dog, inhaled or intranasal, subject 104
# [12] = both sexes, Beagle, dog, inhaled or intranasal, mean of 4 dogs
structure (smiles),measurement,setting,value
"CC(C)c1cccc(C(C)C)c1OC(=O)OC(C)(C)C [Propofol-t-BOC-Ester, O-(t-butoxycarbonyl)-propofol]",aerosol purity of propofol as a function of vaporization temperature,[1],decrease with increasing vaporization temperature
"CCCCCc1cc(O)c2c(c1)OC(C)(C)[C@@H]1CCC(C)=C[C@@H]21 [THC, Δ^9-tetrahydrocannabinol]",Cmax,[2]; [8],341 ng/mL
same,Tmax,[2]; [8],3 min
same,half-life,[2]; [8],21 min
same,Cmax,[2]; [9],190 ng/mL
same,Tmax,[2]; [9],2 min
same,half-life,[2]; [9],32.5 min
same,Cmax,[2]; [10],358 ng/mL
same,Tmax,[2]; [10],2 min
same,half-life,[2]; [10],22.7 min
same,Cmax,[2]; [11],253 ng/mL
same,Tmax,[2]; [11],2 min
same,half-life,[2]; [11],55.8 min
same,Fraction of THC Emitted Dose in Exhalation,[2]; subject 101,2.8%
same,Fraction of THC Emitted Dose in Exhalation,[2]; subject 102,3.2%
same,Fraction of THC Emitted Dose in Exhalation,[2]; subject 103,2.4%
same,Fraction of THC Emitted Dose in Exhalation,[2]; subject 104,1.7%
same,Cmax,[2]; [12],286 ng/mL
same,Tmax,[2]; [12],2.3 min
same,half-life,[2]; [12],33 min
same,AUC(0-inf),"[2]; both sexes, Beagle, dog, venous plasma, inhaled or intranasal, mean of 4 dogs",92.5 ng·h/mL
same,bioavailability,"[2]; both sexes, Beagle, dog, venous plasma, inhaled or intranasal, inhalation",67%
same,AUC(0-inf),"[2]; female, Beagle, dog, venous plasma, inhaled or intranasal, subject 103",1140 ng·h/mL
same,AUC(0-inf),"[2]; female, Beagle, dog, venous plasma, inhaled or intranasal, subject 104",92.6 ng·h/mL
same,difference in Tmax between THC and its prodrug Δ^9-THC-2-carboxylic acid,[2]; inhalation,3 fold
same,BA,[2]; mean of 4 dogs,67.4%
same,BA,[2]; subject 101,59.7%
same,BA,[2]; subject 102,43.9%
same,BA,[2]; subject 103,84.5%
same,BA,[2]; subject 104,81.6%
same,THC in Exhaled Breath,"[2]; inhalation, subject 101 (M)",26.2 µg
same,THC in Exhaled Breath,"[2]; inhalation, subject 102 (M)",29.6 µg
same,THC in Exhaled Breath,"[2]; inhalation, subject 103 (F)",22.3 µg
same,THC in Exhaled Breath,"[2]; inhalation, subject 104 (F)",15.8 µg
same,time of maximum arterial plasma concentration,[2]; inhalation,90 s
same,time of venous plasma concentration peak,[2]; inhalation,about 150 seconds
same,AUC(0-inf),"[2]; male, Beagle, dog, venous plasma, inhaled or intranasal, subject 101",99.4 ng·h/mL
same,AUC(0-inf),"[2]; male, Beagle, dog, venous plasma, inhaled or intranasal, subject 102",64.5 ng·h/mL
same,AUC(0-inf),"[3]; both sexes, mean of 4 dogs",142 ng·h/mL
same,Cmax,"[3]; both sexes, mean of 4 dogs",1780 ng/mL
same,Tmax,"[3]; both sexes, mean of 4 dogs",0.38 min
same,half-life,"[3]; both sexes, mean of 4 dogs",50.8 min
same,AUC(0-inf),"[3]; female, subject 103",139 ng·h/mL
same,Cmax,"[3]; female, subject 103",1410 ng/mL
same,Tmax,"[3]; female, subject 103",0.25 min
same,half-life,"[3]; female, subject 103",51.3 min
same,AUC(0-inf),"[3]; female, subject 104",118 ng·h/mL
same,Cmax,"[3]; female, subject 104",1230 ng/mL
same,Tmax,"[3]; female, subject 104",0.5 min
same,half-life,"[3]; female, subject 104",36.6 min
same,AUC(0-inf),"[3]; male, subject 101",164 ng·h/mL
same,Cmax,"[3]; male, subject 101",3770 ng/mL
same,Tmax,"[3]; male, subject 101",0.25 min
same,half-life,"[3]; male, subject 101",18.1 min
same,AUC(0-inf),"[3]; male, subject 102",146 ng·h/mL
same,Cmax,"[3]; male, subject 102",697 ng/mL
same,Tmax,"[3]; male, subject 102",0.5 min
same,half-life,"[3]; male, subject 102",97.1 min
same,bioavailability,[4]; typical,less than 50%
same,Tmax,[4],up to 5 hours
"CC(C)(C)OC(=O)NCC(=O)NCC(=O)Oc1ccc2c(c1)CC[C@@H]1[C@@H]2CC[C@]2(C)[C@@H](O)CC[C@@H]12 [estradiol-t-BOC-Gly-Gly, 3-(t-butoxycarbonyl-glycinyl-glycinate)-estradiol]",estradiol in aerosol,"[5]; 325° C., 350° C., and 380° C., n=2, FIG. 17",approximately 94%
same,unconverted prodrug in captured aerosol,"[5]; 325° C., 350° C., and 380° C., n=2, FIG. 18",1.5-2%
same,thermal conversion of the precursor to estradiol,[5]; empirical studies,up to 95%
"CCCCCc1cc2c(c(O)c1C(=O)O)C1C=C(C)CCC1C(C)(C)O2 (stereo not shown) [THCA, Δ^9-THC-2-carboxylic acid]",physical stability of coating (drop tests),[6],physically robust
same,GSD [84/16],[7],2.2
same,MMAD,[7],2.2 μm
same,"fine particle fraction (FPF, MMAD <5 μm)",[7],over 95%
same,absorption from the lung compared with THC,"[2]; inhalation, FIGS. 14 and 15",substantially faster
same,time of maximum arterial plasma concentration,[2]; inhalation,about 30 seconds
same,time of venous plasma concentration peak,[2]; inhalation,about 50 seconds
